Laboratory results taken from ChEMBL document CHEMBL5143660, “Investigation on the chemical space of the substituted triazole thio-benzoxazepinone RIPK1 inhibitors” (Eur J Med Chem, 2022).
Calls of active or inactive are those of the source. The rule behind the calls is not given here.

Legend:
[1] = system: Mus musculus; assay: Anti-necroptic activity against mTNFalpha induced C57BL/6J mouse systemic inflammatory response syndrome model assessed as survival rate pretreated with compound at 5 to 20 mg/kg, IG administered as single dose followed by mTNFalpha injection and measured over 60 hrs; assay type: functional; conditions: dose 5-20 mg/kg
[2] = target: T1, Mixed lineage kinase domain-like protein (Homo sapiens) (UniProt Q8NB16); assay: Inhibition of MLKL phosphorylation in TSZ-induced human HT-29 cells at 5 to 20 nM pretreated with compound followed by TSZ stimulation and measured after 6 hrs by immunoblotting analysis; assay type: cell-based; conditions: dose 5-20 nM
T1 sequence (whole entry): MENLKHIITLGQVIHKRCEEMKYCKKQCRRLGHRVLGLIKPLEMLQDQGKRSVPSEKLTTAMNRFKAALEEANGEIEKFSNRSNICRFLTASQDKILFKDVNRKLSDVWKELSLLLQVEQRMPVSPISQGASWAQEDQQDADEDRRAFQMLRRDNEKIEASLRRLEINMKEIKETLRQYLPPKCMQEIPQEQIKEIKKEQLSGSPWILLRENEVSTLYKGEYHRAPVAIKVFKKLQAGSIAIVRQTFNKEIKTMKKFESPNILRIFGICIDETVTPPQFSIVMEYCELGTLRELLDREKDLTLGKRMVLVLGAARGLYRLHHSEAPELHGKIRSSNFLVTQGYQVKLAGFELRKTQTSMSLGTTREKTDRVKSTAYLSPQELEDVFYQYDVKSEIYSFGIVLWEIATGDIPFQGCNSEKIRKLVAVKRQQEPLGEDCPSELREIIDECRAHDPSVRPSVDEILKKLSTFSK

[3] = system: L929; assay: Anti-necroptic activity in mouse L929 cells assessed as inhibition of TZ induced necroptosis pretreated with compound followed by TZ addition and measured after 12 hrs by celltiter-glo luminescent cell viability assay; assay type: functional, cell-based; conditions: dose 0.078-10 µM, DDE = dose-dependent effect
[4] = Cytotoxicity against human HT-29 cells assessed as reduction in cell viability; assay type: toxicity, cell-based
[5] = target: Receptor-interacting serine/threonine-protein kinase 3 (Homo sapiens) (UniProt Q9Y572); assay: Inhibition of RIPK3 phosphorylation in TSZ-induced human HT-29 cells at 20 nM pretreated with compound followed by TSZ stimulation and measured after 2 to 6 hrs by immunoblotting analysis; assay type: cell-based; conditions: time 2-6 hrs
Sequence of Receptor-interacting serine/threonine-protein kinase 3 (Homo sapiens) (Q9Y572 whole entry, looked up, the tested form may be a part): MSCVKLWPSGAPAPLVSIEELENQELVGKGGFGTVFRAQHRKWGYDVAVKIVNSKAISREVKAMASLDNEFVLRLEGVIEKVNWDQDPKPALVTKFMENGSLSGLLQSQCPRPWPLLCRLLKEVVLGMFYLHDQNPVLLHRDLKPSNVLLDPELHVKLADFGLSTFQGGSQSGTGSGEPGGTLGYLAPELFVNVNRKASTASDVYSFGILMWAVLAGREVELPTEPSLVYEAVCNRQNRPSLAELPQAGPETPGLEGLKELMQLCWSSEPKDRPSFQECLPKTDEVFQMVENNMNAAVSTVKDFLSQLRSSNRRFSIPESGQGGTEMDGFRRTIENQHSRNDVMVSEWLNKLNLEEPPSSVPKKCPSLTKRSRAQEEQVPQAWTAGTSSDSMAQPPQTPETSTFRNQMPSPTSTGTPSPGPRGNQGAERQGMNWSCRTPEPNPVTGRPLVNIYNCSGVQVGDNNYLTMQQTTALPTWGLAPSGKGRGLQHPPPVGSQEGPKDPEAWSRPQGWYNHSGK

[6] = system: HT-29; assay: Anti-necroptic activity in human HT-29 cells assessed as inhibition of TSZ induced necroptosis measured after 16 to 24 hrs by celltiter-glo luminescent cell viability assay; assay type: functional, cell-based
[7] = system: U-937; assay: Anti-necroptic activity in human U-937 cells assessed as inhibition of TSZ induced necroptosis pretreated with compound followed by TSZ addition ans measured after 12 hrs by celltiter-glo luminescent cell viability assay; assay type: functional, cell-based; conditions: dose 0.312-200 nM, DDE = dose-dependent effect
[8] = system: HT-29; assay: Anti-necroptic activity in human HT-29 cells assessed as inhibition of TSZ induced necroptosis measured after 12 hrs by celltiter-glo luminescent cell viability assay; assay type: functional, cell-based; conditions: dose 0.195-200 nM, DDE = dose-dependent effect
[9] = target: T1, Mixed lineage kinase domain-like protein (Homo sapiens); assay: Inhibition of downstream MLKL phosphorylation in TSZ-induced human HT-29 cells at 20 nM pretreated with compound followed by TSZ stimulation and measured after 2 to 6 hrs by immunoblotting analysis; assay type: cell-based; conditions: time 2-6 hrs
[10] = target: T2, Receptor-interacting serine/threonine-protein kinase 1 (Homo sapiens) (UniProt Q13546); assay: Inhibition of RIPK1 phosphorylation in TSZ-induced human HT-29 cells at 20 nM pretreated with compound followed by TSZ stimulation and measured after 2 to 6 hrs by immunoblotting analysis; assay type: cell-based; conditions: time 2-6 hrs
T2 sequence (whole entry): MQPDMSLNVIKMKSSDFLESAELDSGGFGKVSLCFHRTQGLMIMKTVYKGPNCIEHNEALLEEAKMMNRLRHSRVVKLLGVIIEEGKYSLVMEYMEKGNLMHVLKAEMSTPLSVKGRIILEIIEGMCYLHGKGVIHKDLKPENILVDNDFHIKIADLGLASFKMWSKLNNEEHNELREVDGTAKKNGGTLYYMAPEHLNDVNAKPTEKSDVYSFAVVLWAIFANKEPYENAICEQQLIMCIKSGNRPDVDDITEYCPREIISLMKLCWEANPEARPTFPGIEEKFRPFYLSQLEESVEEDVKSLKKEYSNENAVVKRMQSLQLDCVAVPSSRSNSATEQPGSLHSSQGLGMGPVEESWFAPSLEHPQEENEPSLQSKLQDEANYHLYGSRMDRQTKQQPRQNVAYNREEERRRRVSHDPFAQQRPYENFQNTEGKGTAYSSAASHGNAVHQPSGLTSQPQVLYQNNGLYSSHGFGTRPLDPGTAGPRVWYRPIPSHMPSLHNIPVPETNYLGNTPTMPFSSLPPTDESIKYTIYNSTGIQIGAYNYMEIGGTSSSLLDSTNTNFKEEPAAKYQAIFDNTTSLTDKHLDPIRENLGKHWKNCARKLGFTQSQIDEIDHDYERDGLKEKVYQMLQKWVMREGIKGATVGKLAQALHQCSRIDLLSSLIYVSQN

[11] = target: Receptor-interacting serine/threonine-protein kinase 3 (Homo sapiens) (UniProt Q9Y572); assay: Inhibition of RIPK3 phosphorylation in TSZ-induced human HT-29 cells at 5 to 20 nM pretreated with compound followed by TSZ stimulation and measured after 6 hrs by immunoblotting analysis; assay type: cell-based; conditions: dose 5-20 nM
[12] = target: T2, Receptor-interacting serine/threonine-protein kinase 1 (Homo sapiens); assay: Inhibition of RIPK1 phosphorylation in TSZ-induced human HT-29 cells pretreated with compound followed by TSZ stimulation and measured after 6 hrs by immunoblotting analysis; assay type: cell-based; conditions: dose 0.5-20 nM, DDE = dose-dependent effect
[13] = target: T1, Mixed lineage kinase domain-like protein (Homo sapiens); assay: Inhibition of MLKL phosphorylation in TSZ-induced human HT-29 cells pretreated with compound followed by TSZ stimulation and measured after 6 hrs by immunoblotting analysis; assay type: cell-based; conditions: dose 0.5-20 nM, DDE = dose-dependent effect
[14] = system: Mus musculus; assay: Anti-necroptic activity against mTNFalpha-induced systemic inflammatory response syndrome C57BL/6J mouse model assessed as protection of body temperature pretreated with compound at 5 to 20 mg/kg, IG administered as single dose followed by mTNFalpha injection measured after 2 to 3 hrs; assay type: functional, organism-based; conditions: dose 5-20 mg/kg, time 2-3 hrs
[15] = system: HT-29; assay: Anti-necroptic activity in human HT-29 cells assessed as inhibition of TCZ induced necroptosis measured after 16 hrs by celltiter-glo luminescent cell viability assay; assay type: functional, cell-based; conditions: dose 0.781-200 nM, DDE = dose-dependent effect
[16] = target: Receptor-interacting serine/threonine-protein kinase 3 (Homo sapiens) (UniProt Q9Y572); assay: Inhibition of RIPK3 phosphorylation in TSZ-induced human HT-29 cells pretreated with compound followed by TSZ stimulation and measured after 6 hrs by immunoblotting analysis; assay type: cell-based; conditions: dose 0.5-20 nM, DDE = dose-dependent effect
[17] = target: T3, Receptor-interacting serine/threonine-protein kinase 1 (Homo sapiens, UniProt Q13546); assay: Binding affinity to wild-type human partial length RIPK1 (M1 to K305 residues) expressed in bacterial expression system incubated for 1 hr under shaking condition by Kinomescan method
T3 sequence (Q13546 whole entry): T2 sequence (whole entry)

[18] = system: HT-29; assay: Inhibition of RIPK1-RIPK3-MLKL pathway in TSZ induced human HT-29 cells assessed as reduction in necrosome formation at 20 nM measured after 6 hrs by Western blot analysis; assay type: cell-based
[19] = target: T2, Receptor-interacting serine/threonine-protein kinase 1 (Homo sapiens); assay: Inhibition of RIPK1 phosphorylation in TSZ-induced human HT-29 cells at 5 to 20 nM pretreated with compound followed by TSZ stimulation and measured after 6 hrs by immunoblotting analysis; assay type: cell-based; conditions: dose 5-20 nM

Q: With `CN1C(=S)[C@@H](NC(=O)c2nc(Cc3ccccc3)n(CCF)n2)COc2ccccc21` as the compound, how does the Activity [1] read?
A: Its Activity is 90%.

Q: What about the inhibition [2] of the same compound?
A: Its inhibition is 100%.

Q: And the Activity [3]?
A: Its Activity is “Dde”.

Q: And the CC50 [4]?
A: Its CC50 is greater than 100000 nM.

Q: And the inhibition [5]?
A: The inhibition was 100%.

Q: And the EC50 [6]?
A: Its EC50 is 8.9 nM.

Q: What about the Activity [7] of the same compound?
A: The Activity was “Dde”.

Q: And the Activity [8]?
A: Its Activity is “Dde”.

Q: What about the inhibition [9] of the same compound?
A: Its inhibition is “Active”.

Q: What about the inhibition [10] of the same compound?
A: Its inhibition is 100%.

Q: What about the inhibition [11] of the same compound?
A: The inhibition was 100%.

Q: And the inhibition [12]?
A: Its inhibition is “Dde”.

Q: And the inhibition [13]?
A: Its inhibition is “Dde”.

Q: And the Activity [14]?
A: The Activity was “Active”.

Q: What about the Activity [15] of the same compound?
A: Its Activity is “Dde”.

Q: And the inhibition [16]?
A: The inhibition was “Dde”.

Q: What about the Kd [17] of the same compound?
A: Its Kd is 60 nM.

Q: What about the inhibition [18] of the same compound?
A: Its inhibition is “Active”.

Q: And the inhibition [19]?
A: Its inhibition is 100%.
